Measurements reported in ChEMBL document CHEMBL5308504, “Tm Shift (DSF) assay results for EUbOPEN Chemogenomics Library” (2023).
“And” between values parts separate entries of the source, which are not always exact repeats. Equal values may be shown once.

Legend:
[1] = target: T1, Peregrin (Homo sapiens) (UniProt P55201); conditions: Compound concentration 20.0 uM, Protein concentration 2.0 uM, Result type QC Liability
T1 sequence (whole entry): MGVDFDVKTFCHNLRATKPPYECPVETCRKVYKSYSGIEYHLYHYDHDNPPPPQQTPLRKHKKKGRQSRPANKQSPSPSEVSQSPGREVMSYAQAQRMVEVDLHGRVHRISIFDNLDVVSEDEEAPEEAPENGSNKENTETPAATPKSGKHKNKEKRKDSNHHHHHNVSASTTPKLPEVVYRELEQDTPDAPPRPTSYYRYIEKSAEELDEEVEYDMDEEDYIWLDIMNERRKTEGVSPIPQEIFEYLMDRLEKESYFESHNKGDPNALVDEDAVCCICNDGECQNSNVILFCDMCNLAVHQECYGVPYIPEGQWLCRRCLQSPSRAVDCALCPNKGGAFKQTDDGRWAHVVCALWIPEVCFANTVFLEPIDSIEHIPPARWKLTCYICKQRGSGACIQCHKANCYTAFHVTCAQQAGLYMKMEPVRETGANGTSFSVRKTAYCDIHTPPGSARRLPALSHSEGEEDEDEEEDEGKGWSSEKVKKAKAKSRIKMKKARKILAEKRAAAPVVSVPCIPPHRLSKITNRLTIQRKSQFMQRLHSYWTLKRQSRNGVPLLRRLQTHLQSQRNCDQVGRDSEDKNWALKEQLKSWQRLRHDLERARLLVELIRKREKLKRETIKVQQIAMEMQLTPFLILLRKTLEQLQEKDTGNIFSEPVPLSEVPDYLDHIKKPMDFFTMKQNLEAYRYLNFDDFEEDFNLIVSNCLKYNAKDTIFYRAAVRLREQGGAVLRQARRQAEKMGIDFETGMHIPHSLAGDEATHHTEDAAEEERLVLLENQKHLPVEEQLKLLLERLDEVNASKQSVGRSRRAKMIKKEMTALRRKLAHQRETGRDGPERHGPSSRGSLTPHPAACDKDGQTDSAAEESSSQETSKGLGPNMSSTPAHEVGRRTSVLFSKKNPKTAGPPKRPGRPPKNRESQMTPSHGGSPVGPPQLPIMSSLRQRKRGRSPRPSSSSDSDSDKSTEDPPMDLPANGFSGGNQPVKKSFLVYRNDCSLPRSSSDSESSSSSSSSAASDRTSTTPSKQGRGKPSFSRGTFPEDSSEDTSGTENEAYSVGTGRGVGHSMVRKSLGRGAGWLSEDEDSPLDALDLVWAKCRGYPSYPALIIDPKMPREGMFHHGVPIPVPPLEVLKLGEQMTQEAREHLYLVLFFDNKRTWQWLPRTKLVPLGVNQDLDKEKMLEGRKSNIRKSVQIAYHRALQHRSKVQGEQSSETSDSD

[2] = target: Fibroblast growth factor receptor 3 (Homo sapiens) (UniProt P22607); conditions: Compound concentration 20.0 uM, Protein concentration 2.0 uM, Result type QC Liability
Fibroblast growth factor receptor 3 (Homo sapiens), sequence (P22607 23-806 limits assumed): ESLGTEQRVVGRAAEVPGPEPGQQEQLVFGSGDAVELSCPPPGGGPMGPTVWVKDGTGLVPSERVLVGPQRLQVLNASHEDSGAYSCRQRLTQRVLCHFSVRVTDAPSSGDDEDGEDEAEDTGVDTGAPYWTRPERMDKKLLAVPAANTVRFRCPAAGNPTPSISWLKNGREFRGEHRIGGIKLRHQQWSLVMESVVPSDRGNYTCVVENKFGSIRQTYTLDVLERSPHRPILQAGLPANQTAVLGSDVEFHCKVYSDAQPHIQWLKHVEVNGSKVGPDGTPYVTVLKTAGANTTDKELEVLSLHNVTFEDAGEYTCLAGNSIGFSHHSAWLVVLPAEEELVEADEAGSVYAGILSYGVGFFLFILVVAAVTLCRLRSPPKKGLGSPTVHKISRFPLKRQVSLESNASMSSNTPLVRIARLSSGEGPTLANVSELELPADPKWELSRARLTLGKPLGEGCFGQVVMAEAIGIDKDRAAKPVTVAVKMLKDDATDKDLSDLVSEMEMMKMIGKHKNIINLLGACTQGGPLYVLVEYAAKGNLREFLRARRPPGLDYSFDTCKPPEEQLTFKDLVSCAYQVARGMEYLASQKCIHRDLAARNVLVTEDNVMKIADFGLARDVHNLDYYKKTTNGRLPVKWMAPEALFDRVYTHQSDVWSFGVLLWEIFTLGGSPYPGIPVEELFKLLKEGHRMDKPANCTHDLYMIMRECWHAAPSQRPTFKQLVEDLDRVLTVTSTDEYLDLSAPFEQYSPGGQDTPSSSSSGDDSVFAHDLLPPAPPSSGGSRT
Description: Thermal Shift Assay. Domain: start/stop: P449-E759

O=C(O)Cc1cc(I)c(Oc2ccc(O)c(I)c2)c(I)c1
ΔTm [1]: -2.62 °C
ΔTm [2]: -0.28 °C

COc1ccc(F)c(F)c1C(=O)c1cnc(NC2CCN(S(C)(=O)=O)CC2)nc1N
ΔTm [1]: -0.92 °C
ΔTm [2]: 1.01 °C

COc1cc(-c2cc3ncccc3c(OC[C@H]3CNC(=O)C3)n2)cc(OC)c1OC1CCOCC1
ΔTm [1]: -1.09 °C
ΔTm [2]: 1.16 °C

CN(C)[C@H]1CCN(c2cc(C(F)(F)F)c(C#N)c(Nc3cccc(CCC(=O)O)c3)n2)C1
ΔTm [1]: -2.19 °C
ΔTm [2]: 1 °C

COc1cc2nc(C)nc(NC3(c4ccccc4)CC3)c2cc1OC
ΔTm [1]: -3.11 °C
ΔTm [2]: 0.4 °C

CNc1[nH]c(Nc2ccc(C(=O)N3CCOCC3)cc2OC)nc2ncc(Cl)c1-2
ΔTm [1]: -1.81 °C
ΔTm [2]: 0.62 °C

CC(C)(C)OC(=O)CN(Cc1ccc(Cl)cc1)Cc1ccc([N+](=O)[O-])s1
ΔTm [1]: -0.13 °C
ΔTm [2]: 0.88 °C

CNC(=O)c1ccc2c(c1)ncn2-c1ccc(CC(=O)OC(C)(C)C)cc1
ΔTm [1]: -1.38 °C
ΔTm [2]: 4.13 °C

CC1(C)C[C@@H]1C(=O)N/C(=C\CCCCSC[C@H](N)C(=O)O)C(=O)O
ΔTm [1]: -2.3 °C
ΔTm [2]: 0.5 °C

CN1CCCN(C(=O)c2cccc(-c3ccc(/C=C4/C(=O)Nc5ccc(Cl)cc54)o3)c2)CC1
ΔTm [1]: -2.53 °C
ΔTm [2]: 2.18 °C

COc1ncc(-c2cc(-c3ncc(CN4C[C@@H](C)O[C@@H](C)C4)o3)c3cn[nH]c3c2)cc1NS(C)(=O)=O
ΔTm [1]: -0.2 °C
ΔTm [2]: 1.45 °C

C[C@@H]1CN(CC(=O)N2CC(C)(C)c3nc(CO)c(Cc4ccc(F)cc4)cc32)[C@@H](CN2CCOC[C@H]2C)CN1
ΔTm [1]: -2.93 °C
ΔTm [2]: 0.45 °C

CC(C)S(=O)(=O)c1ccccc1Nc1nc(N[C@@H]2CCCN(CCCCCCCNC(=O)COc3cccc4c3C(=O)N(C3CCC(=O)NC3=O)C4=O)C2)ncc1Cl (some centres not stated)
ΔTm [1]: 0.63 °C
ΔTm [2]: 7.81 °C

CC(C)S(=O)(=O)c1ccccc1Nc1nc(N[C@@H]2CCCN(CCCCCCCNC(=O)COc3cccc4c3C(=O)N(C3CCC(=O)N(C)C3=O)C4=O)C2)ncc1Cl (some centres not stated)
ΔTm [1]: -2.55 °C
ΔTm [2]: 8.15 °C

Cn1c(C(=O)N[C@@H](CO)c2ccc(C(=O)O)cc2)cc2cc(Cl)ccc21
ΔTm [1]: -2.2 °C
ΔTm [2]: 0.81 °C

O=C(NC1CCNCC1)c1n[nH]cc1NC(=O)c1c(Cl)cccc1Cl
ΔTm [1]: -1.28 °C
ΔTm [2]: 0.78 °C

Cn1cnc(Cn2ccc3ccc(CNCc4[nH]c5ccccc5c4[C@@H]4NC(=O)c5ccc(O)cc54)cc32)c1
ΔTm [1]: -1.61 °C
ΔTm [2]: 0.85 °C

CC(C)C(=O)N[C@@H]1CCN(C(=O)Nc2nc3c(s2)-c2nc(-c4ccccc4Cl)ncc2CC3)C1
ΔTm [1]: -1.39 °C
ΔTm [2]: 3.87 °C

CCN(C)S(=O)(=O)Nc1cccc(-c2ccc3c(NC(=O)C4CC4)n[nH]c3c2)c1
ΔTm [1]: -0.56 °C
ΔTm [2]: 2.38 °C

CN1CCC(C#N)(NC(=O)[C@@H](NC(=O)N2CCOCC2)C(C)(C)C)CC1
ΔTm [1]: -2.33 °C
ΔTm [2]: 0.67 °C

C[C@@H](CN1CC[C@@]2(C)c3cccc(O)c3C[C@@H]1C2(C)C)OCc1ccccc1
ΔTm [1]: -1.96 °C
ΔTm [2]: 1.19 °C

Cc1nc2ccccc2c(-c2ccc3c4c(ccnc24)CCO3)c1[C@H](OC(C)(C)C)C(=O)O
ΔTm [1]: -2.17 °C
ΔTm [2]: 0.36 °C

O=C1Nc2nc(-c3c(O)cccc3OCC3CC3)cc([C@@H]3CCCNC3)c2CO1
ΔTm [1]: -2.51 °C
ΔTm [2]: 1.04 °C

CNC(=O)c1cc(C(=O)NC2CC2)cn(Cc2ccccc2)c1=O
ΔTm [1]: -0.87 °C
ΔTm [2]: 0.5 °C

O=C(O)CCCN1CCC[C@H]1COc1ccc(Oc2ccc(Cl)cc2)cc1
ΔTm [1]: -3.24 °C
ΔTm [2]: 0.41 °C

CC(C(=O)Nc1cc(C#N)ccc1CCCC(=O)O)c1ccc(F)c2ccccc12 (configuration not stated)
ΔTm [1]: -2.92 °C
ΔTm [2]: 0.51 °C

CC(C)(C)C(=O)NCc1ccc(Cl)c(C(=O)Nc2ncc[nH]2)c1
ΔTm [1]: -2.86 °C
ΔTm [2]: 0.47 °C

O=C(O)c1ccc(CN2C[C@@H]3C[C@H]2CN3Cc2ccc(Oc3ccc(-c4ncco4)cc3)cc2)cc1
ΔTm [1]: -2.16 °C
ΔTm [2]: 0.44 °C

Cc1cc2c(ncn2C2(C)CN(C(=O)c3ccn(CC4CCN([C@H]5C=CCCCC5)CC4)c3)C2)c(N)n1
ΔTm [1]: -0.47 °C
ΔTm [2]: 0.4 °C

CN[C@@H](C)C(=O)N[C@H](C(=O)N1CCC[C@H]1C(=O)N[C@@H]1CCCc2ccccc21)C1CCCCC1
ΔTm [1]: -1.87 °C
ΔTm [2]: 0.75 °C

OCC1OC(n2cnc3cc(Cl)c(Cl)cc32)C(O)C1O (configuration not stated)
ΔTm [1]: -1.16 °C
ΔTm [2]: 0.39 °C

NCCCc1c(C(=O)O)[nH]c2ccc(C(=O)Nc3ccccc3)cc12
ΔTm [1]: -1.68 °C
ΔTm [2]: 0.79 °C

c1ccc2c(-c3coc4cc(-c5ccc(N6CCNCC6)cc5)cnc34)ccnc2c1
ΔTm [1]: -2.26 °C
ΔTm [2]: 1.12 °C

CCS(=O)(=O)c1cc2cc(C[C@@](O)(CC(C)(C)c3ccc(F)cc3C(N)=O)C(F)(F)F)[nH]c2cn1
ΔTm [1]: -2.1 °C and -0.15 °C
ΔTm [2]: 0.69 °C and 0.88 °C

O=C(NCCN1CCC2(CC1)C(=O)NCN2c1cccc(F)c1)c1ccc2ccccc2c1
ΔTm [1]: -3.2 °C
ΔTm [2]: 0.36 °C

CN(C)C/C=C/C(=O)Nc1cc2c(Nc3ccc(F)c(Cl)c3)ncnc2cc1OC[C@@H]1CCCO1
ΔTm [1]: -0.41 °C
ΔTm [2]: 1.49 °C

N[C@@H]1CCCC[C@H]1Oc1ccc2ncc(-c3cc4ccccc4o3)n2n1
ΔTm [1]: -2.67 °C
ΔTm [2]: 0.36 °C

O=C(CCCN1CCC(O)(c2ccc(Cl)cc2)CC1)c1ccc(F)cc1
ΔTm [1]: -1.6 °C
ΔTm [2]: 0.59 °C

Clc1ccccc1C(c1ccccc1)(c1ccccc1)n1cccn1
ΔTm [1]: -3.65 °C
ΔTm [2]: 0.25 °C

CCCCC[C@@](C)(O)/C=C/[C@H]1C(=O)CC(O)C1C/C=C\CCCC(=O)O (some centres not stated)
ΔTm [1]: -1.97 °C
ΔTm [2]: 0.37 °C

O=C(O)c1ccc2c(c1)nc(NCc1ccccc1)c1ncncc12
ΔTm [1]: -1.74 °C
ΔTm [2]: 0.75 °C

Cn1ncc(NC(=O)c2nc(-c3c(F)cccc3F)sc2N)c1N1CC[C@@H](N)[C@H](F)CC1
ΔTm [1]: -0.66 °C
ΔTm [2]: 0.81 °C

COc1cc(-c2cc3ncccc3c(O[C@H](C)[C@H]3CNC(=O)C3)n2)cc(OC)c1OC
ΔTm [1]: -2.14 °C and -1.33 °C
ΔTm [2]: 1.61 °C and 1.56 °C

COCCNC1CCC(Nc2cc(-c3csc(NCC4(C#N)CCOCC4)n3)c(Cl)cn2)CC1 (configuration not stated)
ΔTm [1]: 0.03 °C
ΔTm [2]: 0.74 °C

COc1cc(Cl)c(C(=O)N[C@@H](CN[C@H]2CC[C@@H](N)CC2)Cc2ccc(C#N)cc2)cc1-c1ccc(CN[C@H](C)c2ccc(C)cc2)o1
ΔTm [1]: -2.44 °C
ΔTm [2]: 1.14 °C

C[C@H]1CN(C2COC2)CCN1c1ccc(Nc2cc(-c3ccnc(N4CCn5c(cc6c5CC(C)(C)C6)C4=O)c3CO)cn(C)c2=O)nc1
ΔTm [1]: -2.12 °C
ΔTm [2]: 4.28 °C

O=C(O)/C=C/c1ccc(Cn2ccnc2)cc1
ΔTm [1]: -2.72 °C
ΔTm [2]: 0.54 °C

c1ccc(C2CCN(c3cnc4c(N5CCOCC5)nccn34)CC2)cc1
ΔTm [1]: -0.86 °C
ΔTm [2]: 0.73 °C

O=C(CCCCCCc1ccccc1)c1ncc(-c2ccccn2)o1
ΔTm [1]: -3.08 °C
ΔTm [2]: 0.46 °C

CNc1nc(Nc2ccc(C(=O)N3CCOCC3)cc2OC)ncc1Cl
ΔTm [1]: -1.86 °C
ΔTm [2]: 0.95 °C

CNS(=O)(=O)c1ccc(N(C)C)c(Nc2ncnc3cc(OC)c(OC)cc23)c1
ΔTm [1]: -0.25 °C
ΔTm [2]: 0.55 °C

Cc1c(N2CCCC2)nc2ccc(Br)cc2c1C(=O)NC[C@H](CCC(=O)O)c1ccccc1Cl
ΔTm [1]: -3.23 °C and -0.94 °C
ΔTm [2]: 0.24 °C and 1.08 °C

CCOC(=O)CS(=O)(=O)c1ccc([C@@H](CO)NC(=O)c2cc3c(Cl)c(Cl)c(C)cc3n2C)cc1
ΔTm [1]: -8.76 °C
ΔTm [2]: 2.82 °C

Cc1nc2cccnc2n2c(-c3cc(C(C)(C)O)ncc3Cl)nnc12
ΔTm [1]: -3.02 °C
ΔTm [2]: 1.25 °C

COc1cc(C)c(S(=O)(=O)N(C)CCOCC(=O)N(C)[C@H]2CCC[C@@H](N3CCN(C)CC3)C2)c(C)c1
ΔTm [1]: -2.36 °C
ΔTm [2]: 0.64 °C

CC(C)(C#Cc1ccc(NC(=O)COc2ccccc2C(=O)c2ccccc2)c(Cl)c1)C(=O)O
ΔTm [1]: -4.06 °C
ΔTm [2]: 0.52 °C

Cn1nc(C(=O)NCc2ccc(C(=O)O)cc2)cc1-c1ccc2[nH]ccc2c1
ΔTm [1]: -1.95 °C
ΔTm [2]: 0.9 °C

N=C(N)NCCC[C@H](NC(=O)CC1(CC(=O)N2CCN(C(c3ccccc3)c3ccccc3)CC2)CCCC1)C(=O)NCc1ccccc1
ΔTm [1]: -4.91 °C
ΔTm [2]: 0.22 °C

CNC(=O)c1c(F)cccc1Nc1nc(Nc2cc3c(cc2OC)CCN3C(=O)CN(C)C)nc2[nH]ccc12
ΔTm [1]: -2.03 °C
ΔTm [2]: 0.2 °C

O=C(Nc1ccc(-n2nc(-c3cccnc3)cc2C(F)(F)F)cn1)c1ccc(-c2ccccc2)c(F)c1
ΔTm [1]: -2.22 °C
ΔTm [2]: 0.42 °C

CN(C)C/C=C/C(=O)Nc1ccc(C(=O)Nc2cccc(Nc3ncc(Cl)c(-c4c[nH]c5ccccc45)n3)c2)cc1
ΔTm [1]: 0.03 °C
ΔTm [2]: 6.9 °C
